What was measured:
[1] = system: CT-26 colorectal tumor cells; assay: CT-26 syngeneic colon carcinoma model, escalating i.p. doses (Example 9); assay type: in vivo, Balb/c mice
Source text: The CT26 mouse colon carcinoma (CT26.WT; ATCC #CRL-2638) cell line was obtained from ATCC. It is an N-nitroso-N-methylurethane-(NNMU) induced, undifferentiated colon carcinoma cell line known in the art. For example, it is described in: Wang M, et al. Active immunotherapy of cancer with a nonreplicating recombinant fowlpox virus encoding a model tumor-associated antigen. J. Immunol. 154: 4685-4692, 1995 (PubMed: 7722321), which is incorporated by reference in its entirety herein. For preparation of tumor cells, A frozen (−140° C.) vial of CT-26 (mouse colon carcinoma cells), from ATCC (cat # CRL-2638, lot #59227052) are thawed and cultured in basic RPMI (with 10% FBS) media over the following week.
CT-26 cells (passage 12) are harvested from the flask in complete medium. Cells are centrifuged and resuspended in RPMI (without FBS), this step is repeated 3 times. Cell density and viability are checked via trypan blue exclusion. Cells are then diluted to desired density (5×10^5 cells per mL) and kept on ice.
Escalating doses of CRX 527 are evaluated for their efficacy in reducing tumor growth. Animals are weighed and innoculated on the right hind quarter with 0.5×10^5 CT26 tumor cells per mouse on Day 0. A total of 130 mice are inoculated with tumor cells—assuming 30% failure rate (either too big or too small at time of start of study), the goal is to have n=10 for each group. After tumor cell innoculation, tumor growth and total body weight are measured 3 times a week for the duration of the study. Randomization occurs on day 10 or 11 when the average tumor volume is approximately 100 mm^3. Begining on the day of randomization, animals are dosed with CRX 527 or vehicle i.p. biweekly, for a total of 6 doses. Mice remain on study until tumors reach >2000 cu mm for two consecutive measurements, they are removed from study for other reasons (i.e. weight loss >20%, ulceration on tumor, etc.) or until the end of the study. After euthanization the tumors may be removed and subject to dissociation for flow analysis and/or FFPE for IHC analysis.
The above protocol was used to generate the results in FIG. 17 at the dosages indicated. In almost every case, Balb/c mice that were inoculated with 0.5×10^5 CT-26 colorectal tumor cells on the right hind quarter developed tumors that, when treated i.p. with vehicle (2% glycerol) only, and progressed as expected. […] FIG. 17.

[2] = system: CT-26 cells; assay: CT-26 two-flank model, abscopal effect (study 4); assay type: in vivo, mice
Protocol: The in vivo anti-tumor efficacy of the TLR4 agonist (CRX-601) was assessed in the murine CT-26 colon carcinoma syngeneic solid tumor model as a monotherapy and in combination with […] a therapeutic antibody (combination data not shown). Seven to eight week old female Balb/c mice (BALB/cAnNCrl, Charles River) were used in these studies. Murine CT-26 colon carcinoma cells (ATCC catalog number CRL-2638 lot #59227052) were cultured in RPMI growth medium supplemented with 10% fetal bovine serum (FBS) in a humidified 37° C. incubator with 5% CO2, CT-26 cells cultured in logarithmic growth were harvested from tissue culture flasks and centrifuged for 5 minutes at 450×g at 4° C. for ten minutes to pellet cells. The supernatant was discarded, and cells were washed in ice cold phosphate buffered saline (PBS) without calcium and magnesium and centrifuged again for 5 minutes at 450×g at 4° C. for ten minutes to pellet cells. […] Tumor volume was calculated using the formula (0.52)×(Length)×(Width^2). In study 3, tumor-free mice were re-challenged with CT-26 tumor cells as described above, on the opposite flank from the original inoculation site and tumor growth was monitored, as described above. […]
An abscopal effect is described as distant tumor regression after a local tumor treatment. […] Tumor size was monitored for both the right and left flank tumors. […]

[3] = system: CT-26 colorectal tumor cells; assay: CT-26 syngeneic colon carcinoma model, escalating i.p. doses (Example 9); assay type: in vivo, Balb/c mice; settings: CRX-601, similar experiment; 4, 20 or 100 ug

CCCCCCCCCCC[C@H](CC(=O)N[C@H]1[C@H](OC[C@H](NC(=O)C[C@@H](CCCCCCCCCCC)OCCCCCCCCCC)C(=O)O)O[C@H](CO)[C@@H](OP(=O)(O)O)[C@@H]1OC(=O)C[C@@H](CCCCCCCCCCC)OCCCCCCCCCC)OCCCCCCCCCC [CRX-601]
Mean % Inhibition ([1]; 4 ug, study day 14 (9/16)): −59.63%
Mean % Inhibition ([1]; 4 ug, study day 17 (9/19)): 4.57%
Mean % Inhibition ([1]; 4 ug, study day 21 (9/23)): −1.55%
Mean % Inhibition ([1]; 4 ug, study day 24 (9/26)): 21.73%
Mean % Inhibition ([1]; 4 ug, study day 28 (9/30)): 7.65%
Mean % Inhibition ([1]; 4 ug, study day 31 (10/3)): −34.14%
Mean % Inhibition ([1]; 20 ug, study day 14 (9/16)): 42.34%
Mean % Inhibition ([1]; 20 ug, study day 17 (9/19)): 69.46%
Mean % Inhibition ([1]; 20 ug, study day 21 (9/23)): 50.75%
Mean % Inhibition ([1]; 20 ug, study day 24 (9/26)): 66.96%
Mean % Inhibition ([1]; 20 ug, study day 28 (9/30)): 50.75%
Mean % Inhibition ([1]; 20 ug, study day 31 (10/3)): −18.27%
Mean % Inhibition ([1]; 100 ug, study day 14 (9/16)): 68.20%
Mean % Inhibition ([1]; 100 ug, study day 17 (9/19)): 92.51%
Mean % Inhibition ([1]; 100 ug, study day 21 (9/23)): 98.50%
Mean % Inhibition ([1]; 100 ug, study day 24 (9/26)): 93.21%
Mean % Inhibition ([1]; 100 ug, study day 28 (9/30)): 94.68%
Mean % Inhibition ([1]; 100 ug, study day 31 (10/3)): 80.15%
survival benefit compared to the control group ([2]; study 4, liposomal CRX-601 IT 25 ug/mouse, vs blank liposome + rat IgG1, p=0.011): significant survival benefit
abscopal effect on untreated distant tumor ([2]; study 4 group 2, left flank tumor IT injection, liposomal 25 ug/mouse, right flank tumor untreated, mouse #4 and #6): distant right flank tumor regression
tumor growth [3]: inhibited tumor growth
